The target of assay [1] is 5-hydroxytryptamine receptor 2A (Homo sapiens, UniProt P28223). In words: Displacement of [3H]ketanserin from CHO cells expressing human 5-hydroxytryptamine 2A receptor. In kind it is cell-based. (In general: Loss of bound radioactivity is the signal in a displacement assay; it reports binding, not function.)
Assay [2] concerns the target T1, 5-hydroxytryptamine receptor 2C (Homo sapiens, UniProt P28335).
T1 sequence (P28335 whole entry): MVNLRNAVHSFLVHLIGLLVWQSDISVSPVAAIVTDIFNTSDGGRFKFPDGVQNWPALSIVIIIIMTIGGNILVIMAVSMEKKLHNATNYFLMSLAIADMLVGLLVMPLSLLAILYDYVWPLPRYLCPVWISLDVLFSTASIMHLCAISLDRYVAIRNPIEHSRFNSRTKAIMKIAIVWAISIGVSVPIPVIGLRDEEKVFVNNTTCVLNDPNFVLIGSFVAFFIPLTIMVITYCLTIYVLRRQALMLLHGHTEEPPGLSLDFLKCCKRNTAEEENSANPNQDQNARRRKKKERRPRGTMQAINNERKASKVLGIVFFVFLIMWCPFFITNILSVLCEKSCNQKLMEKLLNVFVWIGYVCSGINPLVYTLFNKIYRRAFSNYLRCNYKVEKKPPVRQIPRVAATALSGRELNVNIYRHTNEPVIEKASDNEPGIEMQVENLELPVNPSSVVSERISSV
Description: Displacement of [H]-mesulergine from CHO cells expressing human 5-hydroxytryptamine 2C receptor. Format: cell-based.

Assay [3] addresses D(2) dopamine receptor (Homo sapiens, UniProt P14416). Description: biochemical.
Description: Displacement of [3H]spiperone from CHO cells expressing human Dopamine receptor D2.

For orientation: Ki means the dissociation constant of the complex between target and ligand, obtained from inhibition or displacement. Low values mean higher affinity, high ones lower affinity.

As to `CCN(CC)CCc1c(-c2ccccc2)[nH]c2ccccc12`, the Ki in assay [1] was 2.8 nM; in assay [2], 160 nM; in assay [3], more than 1000 nM.
As to `c1ccc(-c2[nH]c3ccccc3c2CCN2CCC2)cc1`, the figures for the Ki in assay [1], in assay [2] and in assay [3] were 44 nM, more than 1000 nM and more than 1000 nM, respectively.
For the compound `C[C@@H]1CCCCN1CCc1c(-c2ccccc2)[nH]c2ccccc12`, the Ki was determined as 0.18 nM in assay [1], 36 nM in assay [2] and 21 nM in assay [3].
Regarding `c1ccc(-c2[nH]c3ccccc3c2CCN2CCCC2)cc1`, the Ki in assay [1] is 9 nM; in assay [2] it was 260 nM; in assay [3], more than 1000 nM.
In the case of `C[C@H]1CCCCN1CCc1c(-c2ccccc2)[nH]c2ccccc12`, the Ki in assay [1] worked out at 4 nM; in assay [2], 230 nM; in assay [3] it was 290 nM.
As to `CCN(C)CCc1c(-c2cccc([N+](=O)[O-])c2)[nH]c2ccccc12`, the figures for the Ki in assay [1], in assay [2] and in assay [3] were 0.14 nM, 36 nM and 39 nM, respectively.
Regarding `c1ccc(-c2[nH]c3ccccc3c2CCN2CCCCC2)cc1`, the Ki in assay [1] turned out to be 2.6 nM; in assay [2], 268 nM; in assay [3], 896 nM.
Take `CN(C)CCc1c(-c2ccccc2)[nH]c2ccccc12`: the results for the Ki in assay [1], in assay [2] and in assay [3] were 4.4 nM, 180 nM and more than 1000 nM, respectively.
Consider `CCN(C)CCc1c(-c2ccco2)[nH]c2ccccc12`, for which the Ki in assay [1], in assay [2] and in assay [3] was more than 1000 nM throughout.

These data come from ChEMBL document CHEMBL1132836, “2-Aryl tryptamines: selective high-affinity antagonists for the h5-HT2A receptor” (Bioorg Med Chem Lett, 2000).
